From paper PMC6643344, “Studying the Possibilities of Using 2-Halogen-Substituted Acetamides As Acyl Donors in Penicillin Acylase-Catalyzed Reactions” (Acta Naturae, 2019)

Target: T1, penicillin acylase from Escherichia coli (Escherichia coli, UniProt P06875)
T1 construct: gene pac; free enzyme in solution; mature alpha/beta heterodimer cut from one precursor (known biology)
Assay: first-order inactivation, residual activity with NIPAB at […] nm
Format: biochemical
Settings: inactivation rate constant (given as kin x 10^4) at 0.1 M compound; 0.1 M potassium phosphate pH 7.5; 25°C; active site, turnover-linked; also a substrate

T1 sequence (P06875 27-235, looked up): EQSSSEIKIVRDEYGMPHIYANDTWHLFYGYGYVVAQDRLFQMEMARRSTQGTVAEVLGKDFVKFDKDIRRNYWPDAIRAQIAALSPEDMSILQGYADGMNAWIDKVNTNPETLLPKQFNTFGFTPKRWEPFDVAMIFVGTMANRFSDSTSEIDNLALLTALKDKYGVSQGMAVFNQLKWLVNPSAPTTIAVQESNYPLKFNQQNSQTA
T1 sequence (P06875 290-846, looked up): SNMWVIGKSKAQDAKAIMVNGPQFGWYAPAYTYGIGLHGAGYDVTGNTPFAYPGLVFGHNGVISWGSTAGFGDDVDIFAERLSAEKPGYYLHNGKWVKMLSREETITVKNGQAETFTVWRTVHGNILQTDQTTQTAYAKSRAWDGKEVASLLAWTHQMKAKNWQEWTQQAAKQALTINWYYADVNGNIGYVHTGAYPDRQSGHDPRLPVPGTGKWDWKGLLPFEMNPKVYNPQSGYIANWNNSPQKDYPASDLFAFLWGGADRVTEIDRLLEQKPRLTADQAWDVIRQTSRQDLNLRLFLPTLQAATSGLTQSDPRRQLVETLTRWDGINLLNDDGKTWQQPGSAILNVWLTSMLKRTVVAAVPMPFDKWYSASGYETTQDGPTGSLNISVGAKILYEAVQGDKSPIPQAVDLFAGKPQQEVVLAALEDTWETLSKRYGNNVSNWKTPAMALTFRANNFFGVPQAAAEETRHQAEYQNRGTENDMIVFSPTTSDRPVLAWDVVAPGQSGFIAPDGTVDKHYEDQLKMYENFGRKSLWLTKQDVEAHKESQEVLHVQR

kin.10^4, min^-1 [min^-1]	Structure (SMILES)
1.1 ± 0.1	NC(=O)CCl [2-chloroacetamide]
47 ± 2	NC(=O)CBr [2-bromoacetamide]

Structure (SMILES)	kin.10^4, min^-1 [min^-1]
NC(=O)CI [2-iodoacetamide]	364 ± 34
